Key:
[1] = test system: rice line ML0831266-03093 (HPPDi + HPPDni); assay: Mesotrione tolerance trials
Protocol: FIG. 4 is a graphical representation of results of a trait tolerance trial wherein mesotrione was applied at the indicated rates about 34 days after planting.
In particular, a rate response experiment was conducted in which two different rates of mesotrione were applied pre-emergence, plus an additional foliar application was also applied.
Further validation of the trait involved testing the mutant line ML0831266-03093 in the presence of common rice weeds.
The mutant line is planted in rows or alternatively whole plots are planted and rows of the unmutated line (P1003) and other types of rice or whole plots are planted. Mesotrione is applied pre-emergence or alternatively it is applied post-emergence at the three to four leaf stage of the rice plants. Various rates of mesotrione are applied pre-emergence, pre-emergence followed by post-emergent, or post-emergent with a single or sequential application. Post-emergent applications are applied at the 3-4 leaf stage of the rice.

[2] = test system: rice line P1003 (unmutated parent); assay: Mesotrione tolerance trials; assay type: in vivo, Oryza sativa
[3] = test system: rice line ML0831265-01493; assay: Mesotrione tolerance trials; assay type: in vivo, Oryza sativa
[4] = test system: rice line R0146 (unmutated); assay: Mesotrione tolerance trials; assay type: in vivo, Oryza sativa; conditions: low rates (105 gm ai/ha)
[5] = test system: F2 individuals from cross ML0831266-03093 x ML0831265-01493; assay: Herbicide bioassays on F2 individuals (Table 3); assay type: in vivo, Oryza sativa
Text: In the population sprayed with 105 gm ai/ha a single QTL found on chromosome 2 with strong linkage to SNP marker BG-id2004662 acted in a mostly dominate manner. This marker and QTL identifies the inherent tolerance in line P1003. The marker is useful for breeding and selection of new mesotrione tolerant lines. The discovery of this QTL facilitates commercial development of new rice varieties with a new method for controlling weeds through the use of mesotrione herbicide. The finding of the linked marker BG-id2004662 is a novel finding and selection strategy for breeding and selecting the tolerance to mesotrione and other herbicides derived from line P1003.
Combining the HPPD tolerance with the ACCase tolerance into a single rice line was initiated with the HPPD tolerance mapping project by crossing the HPPD tolerant line ML0831266-03093 to the ACCase tolerant line ML0831265-01493. In mapping the F2 population plants were selected for HPPD tolerance by applying mesotrione first at a low rate (105 gmai/ha) followed by a high rate (630 gmai/ha). In this process molecular markers were also developed allowing future selection of HPPD tolerance by either markers or herbicide tolerance screening or both.
In one example a rate of 105 gm ai/ha is applied followed three weeks later by a second application of 630 gm ai/ha. In another example a rate of 420 gm ai/ha is applied in a single application. Yet another example entails applying the herbicide at a rate of 630 gm ai/ha. Herbicide applications are done at the three to four leaf stage of seedling growth. The ideal situation is to have also planted near or within the F2 population a set of plants from the original mutant mesotrione donor line ML0831266-03093, a row of plants of the wild-type of the mutation line, P1003, and a row of the line involved as the other parent ML0831265-01493. These control lines will allow easy differentiation for inheritance of the tolerance provided by the ML0831266-03093 mutant line through comparison of the response in the F2 plants to these control lines. Only plants that live and are relatively healthy will have inherited and be homozygous for the tolerance level provided by the ML0831266-03093 mutant line.

[6] = test system: common weeds in rice (grass weeds such as barnyard grass); assay: Weed control in rice crops; assay type: in vivo
Protocol: FIGS. 5A and 5B are photographs of results of trait tolerance trials; weed control by mesotrione herbicide applied pre-planting was evaluated; the plots were planted with a hybrid of the HPPD tolerant line ML0831266-03093; just before planting, the plot on the right FIG. 5B received an application of mesotrione at 210 gmai/ha; the plot on the left FIG. 5A had no herbicide applied either pre-plant or post-emergence; pictures were taken four weeks after planting showing differences in weed appearance.
While testing the tolerant lines, the parent lines were also tested to serve as controls and as an indication of commercial potential as a red rice/wild weedy rice control strategy.
Rice is tolerant to certain ACCase inhibitor herbicides, for example cyhalofop is registered for use in rice. However other ACCase herbicides kill or severely injure rice to varying degrees. […] The applied rates of both types of herbicides giving the weed control are well within the tolerance level of the respective ACCase and HPPD tolerant lines including the combined lines carrying tolerance to both HPPD and ACCase herbicides.

[7] = test system: rice line PL1214418M2-73009; assay: Trial of recovery of HPPD tolerance in the combined line; assay type: in vivo, Oryza sativa; conditions: 0.5×, 1×, 2×, 4× of 210 gmai/ha and sequential 1× and 2×
Protocol: Two trials were conducted to measure recovery of tolerance to both ACCase and HPPD herbicides in the new line PL1214418M2-73009. Recovery of tolerance in the line combining the two traits will illustrate that the traits are heritable and can be used to produce new varieties and hybrids carrying herbicide resistance. These trials are important as often times it is difficult to recover complex QTLs for quantitative traits or in some cases a traits response is dependent upon the genetic background. In the first trail the lines resistance to mesotrione (HPPD herbicide) was evaluated by planting line PL1214418M2-73009, the HPPD resistant line ML0831266-03093 and wild-type rice line P1003 and R0146 in plots (5 feet×10 feet). Mesotrione was applied at 0.5×, 1×, 2×, and 4× multiples of the labeled application rate (210 gmai/ha). Two additional treatments were included with a 1× and 2× rate followed by a second application 14 days afterward with the same rates.

[8] = test system: rice line PL1214418M2-73001 (HPPD mutation only); assay: Contribution of single HPPD tolerance genes, field rows sprayed at 4 leaf stage; assay type: in vivo, Oryza sativa; conditions: 0.5×-4× of 210 gmai/ha, 4 weeks after application
Text: (§1) During the breeding process to develop new lines (PL1214418M2-80048 and PL1214418M2-73009) with resistance/tolerance to HPPD and ACCase herbicides, two other lines were also investigated to determine the contribution of the HPPD tolerance mutation and the HPPD tolerance native gene. The line PL1214418M2-73001 carries ACCase tolerance and only the HPPD tolerance, whereas […] PL1214418M2-73013 carries ACCase tolerance and only the HPPD native tolerance gene. These selections allow the estimation of the tolerance effect of each of the two genes required for tolerance to HPPD herbicides. The tolerance effect of each gene was measured by growing the lines in single rows including the newly developed line PL1214418M2-73009 that carries both the HPPD tolerance from the mutation and the non-induced tolerance, the HPPD tolerant line ML0831266-0309, and the non-induced parent line P1003. The field plots were sprayed at the 4 leaf stage with the HPPD herbicide mesotrione at 0.5×, 1×, 2×, and 4× multiples of the labeled application rate of 210 gmai/ha.

[9] = test system: rice line PL1214418M2-73013 (HPPD native tolerance gene only); assay: as above; assay type: in vivo, Oryza sativa; conditions: 0.5×-4× of 210 gmai/ha, 4 weeks after application
Text: as §1

[10] = 105 gai/ha followed by second application of 630 gai/ha
[11] = single application at 105 gai/ha
[12] = single application at 420 gai/ha

CS(=O)(=O)c1ccc(C(=O)C2C(=O)CCCC2=O)c([N+](=O)[O-])c1 [mesotrione]
rate over which even lines with genetic resistance may be injured ([1]; FIG. 4 trial, 4 weeks after application): over 420 gmai/ha
tolerance of the crop in the presence of common rice weeds ([1]; applied rates): completely tolerant
survival ([1]; higher rates): survives
survival ([1]; low rates (105 gm ai/ha)): survive
survival ([2]; higher rates): killed or severally injured
survival ([2]; low rates (105 gm ai/ha)): survive
sensitivity ([3]; in vivo): highly sensitive
survival ([3]; low rates (105 gm ai/ha)): killed
survival [4]: killed
Observed number of Susceptible plants [5, 10]: 67
Observed number of Tolerant plants [5, 10]: 28
Observed number of Susceptible plants [5, 11]: 23
Observed number of Tolerant plants [5, 11]: 64
Observed number of Susceptible plants [5, 12]: 52
Observed number of Tolerant plants [5, 12]: 26
control of common weeds in rice ([6]; alone, especially pre-plant or at 2× the labeled rate of 210 gmai/ha): Control of common weeds in rice was also achieved
control of prevalent weed population ([6]; plots with line ML0831266-03093): well controlled
response compared with original trait line ML0831266-03093 [7]: same response
tolerance level between P1003 and ML0831266-0309 [8]: intermediate tolerance
tolerance level [9]: tolerance levels similar to the parent line P1003

From patent US11130959B2, “Methods and compositions for combinations of mutations associated with herbicide resistance/tolerance in rice” (priority 2016, dated 2021)
